Common to all, as to type: biochemical
The target in one test is T1, human MAGL (Homo sapiens, UniProt Q99685).
T1 construct: recombinant MAGL enzyme (aa 2-303 RBC, internal preparation)
T1 sequence (Q99685 2-303): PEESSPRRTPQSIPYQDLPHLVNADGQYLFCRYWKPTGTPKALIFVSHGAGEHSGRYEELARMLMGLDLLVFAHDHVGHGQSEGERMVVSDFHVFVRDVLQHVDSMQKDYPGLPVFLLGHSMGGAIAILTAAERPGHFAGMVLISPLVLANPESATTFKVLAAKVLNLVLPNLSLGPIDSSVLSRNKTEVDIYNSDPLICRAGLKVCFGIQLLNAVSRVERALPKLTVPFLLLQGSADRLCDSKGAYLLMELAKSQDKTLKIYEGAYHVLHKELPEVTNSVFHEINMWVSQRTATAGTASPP
In words: MAGL inhibition potency, 4-nitrophenyl acetate (4NPA) hydrolysis, absorbance 405 nm (Example A). As to conditions: 4NPA substrate. From the text:
The potency of certain compounds for inhibiting MAGL were obtained using the following assays.
The monoacylglycerol lipase inhibitor screening assay kit from Cayman Chemical was used to measure the MAGL potency for the compounds in Tables A-1, A-2, A-3.
Cayman's Monoacylglycerol Lipase Inhibitor Screening Assay provides a method for screening human MAGL inhibitors. MAGL hydrolyzes 4-nitrophenylacetate resulting in a yellow product, 4-nitrophenol, with an absorbance of 405-412 nm.
MAGL Inhibition was measured by the following assay. Monoacylglycerol Lipase (MAGL) inhibition was measured using recombinant MAGL enzyme (aa 2-303 RBC, internal preparation) and the substrate 4-Nitrophenyl acetate (4NPA) (Sigma-Aldrich, N8130). Hydrolysis of the substrate in the presence of the enzyme was measured by absorbance at 405 nm. 10 μL of assay buffer (10 mM Tris pH 7.5, 1 mM EDTA, 0.9% DMSO) was added to a black 384-well non-binding plate with clear bottom (Greiner, 781906) for each reaction. Compounds were dispensed using an acoustic liquid handler (Echo, Beckman) at 45 nL (0.1% DMSO). Test compounds and control for MAGL inhibitor JZL-184 (Caymen Chemical, 13158) were tested in 10-concentration IC50 mode with 3-fold serial dilution at a starting concentration of […]. DMSO control wells were included for reference. A 10.8 nM (1.8×) MAGL mix in assay buffer was prepared, with 25 μL added to each reaction well, for a final assay concentration of […]. No enzyme wells received 25 μL of buffer. Plate was incubated at room temperature for 30 minutes. 35 mM solution of 4NPA in methanol was prepared daily A 4.5×4NPA substrate solution was prepared in assay buffer and 10 μL was added to each reaction well, for a final assay concentration of 0.25 mM. Plate was spun for 1 minute at 1000 rpm before measuring absorbance using a CLARIOstar plate reader (BMG Labtech). A kinetic reading at 405 nm was done every minute for 30 minutes. Data was analyzed using the linear slope of the reaction progress curve and the average of the no-enzyme wells (background) was subtracted from the data. The background-subtracted slope data was converted to % activity using the average of wells with enzyme and DMSO vehicle. IC50s were calculated using GraphPad software (Sigmoidal dose response, variable slope equation).
Table 8 provides potency measurements of MAGL inhibition measured using the Potency Assay of Example A above, with the following modifications described in Table C.
The number after each letter for potency measurement value indicates the Method from Table C that was used to obtain that measurement value (e.g. “A(1)” indicates an IC50 measurement of <50 nM obtained from the Method 1 of Example A in Table C).

Another test deals with T2, Flag-tagged MAGL enzyme (Homo sapiens, UniProt Q99685).
T2 sequence (Q99685 1-303): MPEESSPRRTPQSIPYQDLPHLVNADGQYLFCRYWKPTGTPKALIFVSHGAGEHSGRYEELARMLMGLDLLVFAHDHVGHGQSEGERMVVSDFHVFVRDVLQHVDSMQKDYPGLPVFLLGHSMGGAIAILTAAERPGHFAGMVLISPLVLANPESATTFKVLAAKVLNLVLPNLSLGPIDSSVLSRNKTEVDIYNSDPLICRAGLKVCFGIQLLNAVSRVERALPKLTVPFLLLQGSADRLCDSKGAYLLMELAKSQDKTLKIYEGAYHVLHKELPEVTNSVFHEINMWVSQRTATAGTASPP
In words: Reversible MAGL inhibition, washout of immobilized Flag-tagged MAGL enzyme (Example C). The conditions noted are these: for activity at 1 µM: 0.5 h, relative to control (no inhibitor before washout), immediately following a 30 minute washout, pre-washout 1 μM, read-out: % MAGL activity returning after washout; for degree to which MAGL enzymatic activity returned following washout: pre-washout compound concentration 1 μM. The method, then: The reversible mechanism of MAGL inhibition of a test compound of Formula (I) can be determined. Flag-tagged MAGL enzyme will be immobilized on anti-Flag beads Immobilized enzyme will be incubated+/−inhibitor at a dose that produces complete inhibition. Colorimetric substrate (4-NPA) will be added and the reaction monitored on a plate reader for 30 minutes to verify complete inhibition. Immobilized enzyme will then be washed thoroughly to remove the inhibitor, and fresh substrate will be added. The reaction will be monitored for an additional 30 minutes; returning enzymatic activity will indicate reversibility of inhibition.
For some test compounds, % activity returning after washout may be less than 100% if complete compound unbinding takes longer than 30 minutes.

In another test the target is T3, human recombinant FAAH (Homo sapiens, UniProt O00519).
T3 construct: purchased Cayman Chemical 700302 (enzyme); kit Item No. 10005196
T3 sequence (O00519 1-579): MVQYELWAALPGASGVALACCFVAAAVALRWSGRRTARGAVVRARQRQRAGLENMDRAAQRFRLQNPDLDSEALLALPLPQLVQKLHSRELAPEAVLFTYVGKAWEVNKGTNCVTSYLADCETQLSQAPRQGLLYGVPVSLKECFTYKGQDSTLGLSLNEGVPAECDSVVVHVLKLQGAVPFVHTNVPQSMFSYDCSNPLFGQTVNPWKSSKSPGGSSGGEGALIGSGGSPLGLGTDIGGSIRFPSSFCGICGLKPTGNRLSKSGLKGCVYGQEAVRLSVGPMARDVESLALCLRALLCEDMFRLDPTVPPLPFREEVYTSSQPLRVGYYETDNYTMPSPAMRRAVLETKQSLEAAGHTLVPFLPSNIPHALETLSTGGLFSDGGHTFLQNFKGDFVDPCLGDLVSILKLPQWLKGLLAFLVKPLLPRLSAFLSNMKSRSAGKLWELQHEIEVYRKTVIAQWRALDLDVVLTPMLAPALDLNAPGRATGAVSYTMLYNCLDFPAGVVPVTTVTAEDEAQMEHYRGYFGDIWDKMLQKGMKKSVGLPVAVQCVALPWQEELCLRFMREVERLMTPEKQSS
In words: FAAH counter-screen, AMC arachidonoyl amide substrate (Example B). The conditions noted are these: Method B; 20 uM AAMCA substrate. The method, then: Comparative compound potency at FAAH can be obtained with the following assay.
MAGL inhibitor compounds were also counter-screened for FAAH inhibition potency using the following assay. Assessment of FAAH inhibition was performed using Fatty Acid Amide Hydrolase Inhibitor Screening Assay Kit (Cayman Item No. 10005196) following manufacture's instruction with some modifications. The kit utilizes human recombinant FAAH and the fluorescent substrate, AMC Arachidonoyl amide (AAMCA). […] 300 nL or 30 nL of test compounds were delivered into a 384-well black plate (Corning, 3573) using a Labcyte Echo, followed by addition of 15 μL of FAAH enzyme (Cayman, 700302) in assay buffer. After a 5-minute pre-incubation at room temperature, 10 μL of AAMCA was added in assay buffer to start the reaction. Final concentration of FAAH enzyme is not specified and AAMCA substrate was used at the 20 uM. After these dilutions, the final concentration of the test compounds ranged from 100 μM to 5.08 nM or 10 μM down to 0.508 nM. The reaction was allowed to progress for 60 minutes, while the plate was read on an Envision plate reader at an Ex/Em of 350/460 nm with readings every minute. The data was analyzed in Microsoft Excel, using the slope between 30 and 59 minutes. The average of the no-enzyme wells (background) was subtracted from the data. The background-subtracted slope data was converted to % activity using the average of wells with enzyme and DMSO vehicle. IC50 values were calculated using GraphPad software (Sigmoidal dose response, variable slope equation).
Compounds listed in Table D were tested in the FAAH Counter-screen of Example B.

Setting [1] is: Method 12: Reaction Biology MAGL enzyme, 15 nM, read-out: MAGL Potency (Detection Method).

Where two headings read alike, the source gives them in different places.

As for `O=C(c1cc(O)ccc1F)N1CC2(CC(n3nc(C(F)(F)F)cc3-c3ccccn3)C2)C1` [Compound 5, (2-fluoro-5-hydroxyphenyl){6-[5-(2-pyridyl)-3-(trifluoromethyl)-1-pyrazolyl]-2-aza-2-spiro[3.3]heptyl}methanone], the IC50 is less than 50 nM on human MAGL (setting [1]) and more than 10 µM at human recombinant FAAH. The activity at 1 µM at Flag-tagged MAGL enzyme is more than 50%. Moreover, the degree to which MAGL enzymatic activity returned following washout on Flag-tagged MAGL enzyme came to 123%.
For the compound `O=C(c1cc(O)ccc1F)N1CC2(CC(n3nc(-c4ccc(=O)[nH]c4)cc3C(F)(F)F)C2)C1` [Compound 10, 5-(1-{2-(2-fluoro-5-hydroxybenzoyl)-2-aza-6-spiro[3.3]heptyl}-5-(trifluoromethyl)-3-pyrazolyl)-2(1H)-pyridinone], the IC50 at human MAGL (setting [1]) is less than 50 nM. Also, at Flag-tagged MAGL enzyme, the activity at 1 µM was more than 50% and the degree to which MAGL enzymatic activity returned following washout amounted to 122%. For the same compound, on human recombinant FAAH, the IC50 was more than 10 µM.
In the case of `COc1ncccc1-c1c(C(F)(F)F)cnn1C1CC2(C1)CN(C(=O)c1cc(O)ccc1F)C2` [Compound 19, (2-fluoro-5-hydroxyphenyl){6-[5-(2-methoxy-3-pyridyl)-4-(trifluoromethyl)-1-pyrazolyl]-2-aza-2-spiro[3.3]heptyl}methanone], at human MAGL (setting [1]), the IC50 was less than 50 nM.
As for `COc1ncccc1-c1nn(C2CC3(C2)CN(C(=O)c2cc(O)ccc2F)C3)cc1C(F)(F)F` [Compound 20], the IC50 at human MAGL (setting [1]) was in the range of 150 to 500 nM.
Take `O=C(c1cc(O)ccc1F)N1CC2(CC(n3ncc(C(F)(F)F)c3-c3cccnc3F)C2)C1` [Compound 21]: on human MAGL (setting [1]), the IC50 was 150 to 500 nM.
Same read-out and setting: the figure for `O=C(c1cc(O)ccc1F)N1CC2(CC(n3cc(C(F)(F)F)c(-c4cccnc4F)n3)C2)C1` [Compound 22, (2-fluoro-5-hydroxyphenyl){6-[3-(2-fluoro-3-pyridyl)-4-(trifluoromethyl)-1-pyrazolyl]-2-aza-2-spiro[3.3]heptyl}methanone] is less than 50 nM.
On the same count and under the same terms, the result for `COc1ccc(-c2c(C(F)(F)F)cnn2C2CC3(C2)CN(C(=O)c2cc(O)ccc2F)C3)cn1` [Compound 27] reads 50 to 150 nM; that for `COc1ccc(-c2nn(C3CC4(C3)CN(C(=O)c3cc(O)ccc3F)C4)cc2C(F)(F)F)cn1` [Compound 28, (2-fluoro-5-hydroxyphenyl){6-[3-(6-methoxy-3-pyridyl)-4-(trifluoromethyl)-1-pyrazolyl]-2-aza-2-spiro[3.3]heptyl}methanone], less than 50 nM.
With `O=C(c1cc(O)ccc1F)N1CC2(CC(n3ncc(C(F)(F)F)c3-c3ccc[nH]c3=O)C2)C1` [Compound 29, 3-(1-{2-(2-fluoro-5-hydroxybenzoyl)-2-aza-6-spiro[3.3]heptyl}-4-(trifluoromethyl)-5-pyrazolyl)-2(1H)-pyridinone], on human MAGL (setting [1]), the IC50 was 1000 to 5100 nM.
On the same count and under the same terms, the result for `O=C(c1cc(O)ccc1F)N1CC2(CC(n3cc(C(F)(F)F)c(-c4ccc[nH]c4=O)n3)C2)C1` [Compound 30, 3-(1-{2-(2-fluoro-5-hydroxybenzoyl)-2-aza-6-spiro[3.3]heptyl}-4-(trifluoromethyl)-3-pyrazolyl)-2(1H)-pyridinone] reads 50 to 150 nM.
Take `O=C(c1cc(O)ccc1F)N1CC2(CC(n3ncc(C(F)(F)F)c3-c3ccc(=O)[nH]c3)C2)C1` [Compound 31, 5-(1-{2-(2-fluoro-5-hydroxybenzoyl)-2-aza-6-spiro[3.3]heptyl}-4-(trifluoromethyl)-5-pyrazolyl)-2(1H)-pyridinone]: on human MAGL (setting [1]), the IC50 fell in the range of 1000 to 5100 nM.
On the same count and under the same terms, the result for `O=C(c1cc(O)ccc1F)N1CC2(CC(n3cc(C(F)(F)F)c(-c4ccc(=O)[nH]c4)n3)C2)C1` [Compound 32] reads 50 to 150 nM; that for `O=C(c1ccc(F)cc1OC1CC1)N1CC2(CC(N3C=C(c4ccccc4F)CC3=O)C2)C1` [Compound 33, 1-{2-(2-cyclopropoxy-4-fluorobenzoyl)-2-aza-6-spiro[3.3]heptyl}-3-(o-fluorophenyl)-2-pyrrolin-5-one], 1000 to 5100 nM; that for `O=C1CCC(c2c(C(F)(F)F)cnn2C2CC3(C2)CN(C(=O)c2cc(O)ccc2F)C3)CN1` (stereo not drawn) [Compound 41, 5-(1-{2-(2-fluoro-5-hydroxybenzoyl)-2-aza-6-spiro[3.3]heptyl}-4-(trifluoromethyl)-5-pyrazolyl)-2-piperidinone], 150 to 500 nM.
As to `Cc1cc(C2CC3(C2)CN([C@H]2CCOc4ccccc42)C3)n(-c2ccccc2C)n1` [Compound C4, reference compound], the IC50 on human MAGL (Method 2: Cayman Chemical MAGL enzyme, 10 nM, read-out: Potency) is more than 10000 nM.

(Values after patent publication US20260345568A1, “INHIBITING MONOACYLGLYCEROL LIPASE (MAGL)” (PSY THERAPEUTICS, INC., priority 2023, published 2026).)
